Laboratory results from paper PMC8041284, “Tunable Methacrylamides for Covalent Ligand Directed Release Chemistry” (Journal of the American Chemical Society, 2021).
Where a SMILES comes first, the peptide text is derived from it. [ ]: non-standard residue; d: D form. The star is where a group is joined. Dolaproine = CO[C@@H]([C@@H]1CCCN1)[C@@H](C)C(=O)O; Dil = CC[C@H](C)[C@H](NC)[C@@H](CC(=O)O)OC; X2 = C[C@@H](N*)[C@@H](O)c1ccccc1; NMeV = CN[C@H](C(=O)O)C(C)C

Biological target: BTK (Homo sapiens, UniProt Q06187)
Sequence (Q06187 402-655 limits assumed): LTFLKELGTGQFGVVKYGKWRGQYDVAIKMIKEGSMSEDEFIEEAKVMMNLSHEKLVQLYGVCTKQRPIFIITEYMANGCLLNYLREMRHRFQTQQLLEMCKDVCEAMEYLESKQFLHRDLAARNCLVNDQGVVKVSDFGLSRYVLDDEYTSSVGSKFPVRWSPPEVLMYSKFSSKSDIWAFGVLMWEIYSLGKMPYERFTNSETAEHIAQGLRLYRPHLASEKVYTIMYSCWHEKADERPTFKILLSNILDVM
Assay: biochemical
Conditions: read-out: BTK inhibition (%)

Structure (SMILES)	inhibition at 10 µM [%]
CC[C@H](C)[C@@H]([C@@H](CC(=O)N1CCC[C@H]1[C@H](OC)[C@@H](C)C(=O)N[C@H](C)[C@@H](O)c1ccccc1)OC)N(C)C(=O)[C@@H](NC(=O)[C@@H](NC)C(C)C)C(C)C [PCM-0215521] (H-[NMeV]V[Dil][Dolaproine]-X2)	-3.9

Same assay, conditions: read-out: BTK inhibition (%), 0.75 uM BTK, […] probe 3l, 15 min preincubation

Structure (SMILES)	inhibition at 10 µM [%]
COc1ccc(S(=O)(=O)N(CCO)c2ccccc2CN(C)C/C=C/c2ccc(Cl)cc2)cc1 [PCM-0215495]	70.3
CS(=O)(=O)c1ccc(-c2nnc(/C=C/c3nnc(-c4ccc(C#N)cc4)o3)n2-c2ccccc2Cl)nc1 [PCM-0215499]	0
FC(F)(F)Oc1ccc2nc(-c3ccc(OCCOCCOc4ccc(-c5nc6ccc(OC(F)(F)F)cc6[nH]5)nc4)cn3)[nH]c2c1 [PCM-0215500]	32.4
NS(=O)(=O)NCCNc1nonc1C(=Nc1ccc(F)c(Br)c1)NO [PCM-0215507]	-3.1
CNC1CCC(N(Cc2cccc(-c3ccncc3)c2)C(=O)c2sc3ccccc3c2Cl)CC1 (stereo not shown) [PCM-0215509]	-8.5
CN1CCN(Cc2ccc(Nc3ncc(Cl)c(Nc4ccccc4S(=O)(=O)N(C)C)n3)cc2)CC1 [PCM-0215510]	67.2
CC(C)C[C@@H]1NC(=O)[C@@H](C(C)C)NC(=O)[C@@H]2CCCN2C(=O)[C@@H](CC(=O)O)NC(=O)[C@@H](Cc2c[nH]c3ccccc23)NC1=O [PCM-0215512] (cyclo(L[dW][dD]P[dV]))	-5.4
Cc1cc(C)c(CNC(=O)c2cc(-c3ccc(N4CCN(C)CC4)nc3)cc3c2c(C)cn3C(C)C)c(=O)[nH]1 [PCM-0215513]	-6.9
O=C(O)CC[C@@H](O)C(=O)O [PCM-0215516]	-13.6
C[C@H](CCC(=O)NCCS(=O)(=O)O)[C@H]1CC[C@H]2[C@@H]3[C@@H](O)C[C@@H]4C[C@H](O)CC[C@]4(C)[C@H]3CC[C@]12C [PCM-0215517]	5.4
C=CC(=O)N1CCC[C@H](n2c(=O)n(-c3ccc(Oc4ccccc4)cc3)c3c(N)ncnc32)C1 [PCM-0215519]	97.2
O=C(NC1CC1)c1cc(-c2cccs2)on1 [PCM-0215520]	-2.3
CN(C)C(=S)NN=C(c1ccccn1)c1ccccn1 [PCM-0215522]	20.1
CCC[C@H](N[C@H]1CCc2cc(F)cc(F)c2C1)C(=O)Nc1cn(C(C)(C)CNCC(C)(C)C)cn1 [PCM-0215524]	-3.9

Results, then the compound that gave them:

inhibition at 10 µM [%]	Structure (SMILES)
77.2	O=C(N/N=C/c1cc(O)c(O)cc1O)c1cc2ccccc2cc1O [PCM-0215496]
28.3	O=C(NOCCO)c1ccc2cncn2c1Nc1ccc(I)cc1F [PCM-0215498]
19.3	N#Cc1ccc(-c2c(-c3ncn[nH]3)sc(N3CCOCC3)c2C#N)c(F)c1 [PCM-0215501]
-15.2	C[C@@H](Nc1cc(F)cc(F)c1)c1cc(C(=O)N(C)C)cc2c(=O)cc(N3CCOCC3)oc12 [PCM-0215502]
4.6	CCCC(=O)Nc1ncnc2c1ncn2[C@@H]1O[C@@H]2COP(=O)(O)O[C@H]2[C@H]1OC(=O)CCC [PCM-0215503]
-10	CC1(C)CC[C@]2(NC(=O)C(C)(F)F)CC[C@]3(C)[C@H](C(=O)C=C4[C@@]5(C)C=C(C#N)C(=O)C(C)(C)[C@@H]5CC[C@]43C)[C@@H]2C1 [PCM-0215505]
1.5	Nc1ncnc2c1nc(Br)n2[C@@H]1O[C@@H]2COP(=O)(O)O[C@H]2[C@H]1O [PCM-0215506]
100	C=CC(=O)Nc1cccc(C)c1Nc1ncc2cc(-c3c(Cl)c(OC)cc(OC)c3Cl)ccc2n1 [PCM-0215508]
-13.1	CNc1cc(-c2cccc(Cl)c2Cl)nc(N)n1 [PCM-0215511]
3.9	O=c1[nH]c(=O)n([C@H]2C[C@H](O)[C@@H](CO)O2)cc1Br [PCM-0215515]
0	Cc1nc(-c2cn3c(n2)-c2ccc(-c4cnn(C(C)(C)C(N)=O)c4)cc2OCC3)n(C(C)C)n1 [PCM-0215518]
-75.9	COc1cccc(-c2ccc(NC(=O)C3=C(C(=O)O)CCC3)c(F)c2)c1 [PCM-0215523]
-51.7	COc1nc(OCc2cccc(-c3ccccc3)c2C)ccc1CNCCNC(C)=O [PCM-0215525]
